In EP0330874A2, “Antibacterial and antitumor agents LL-E33288 epsilon-I and LL-E33288-epsilonBr, with processes and intermediates for producing said agents” (AMERICAN CYANAMID COMPANY, priority 1988, dated 1989):

Test system: lymphocytic leukemia P388
Experiment: Lymphocytic Leukemia P388 Test
Assay type: in vivo, BDFl mice
Conditions: for Median Survival: mice, 30 days observation; for T/C x 100: ratio of survival time treated/control, 125 or over = significant
From the text: Certain in vivo testing systems and protocols have been developed by the National Cancer Institute for testing compounds to determine their suitability as antineoplastic agents. These have been reported in "Cancer Chemotherapy Reports", Part III, Volume 3, No. 2 (1972), Geran, et al. These protocols have established standardized screening tests which are generally followed in the field of testing for antitumor agents. Of these systems, lymphocytic leukemia P388 is particularly significant to the present invention. This neoplasm is utilized for testing as transplantable tumors in mice. Significant antitumor activity shown in this protocol by a percentage increase of mean survival times of the treated(T) animals over the control(C) animals is indicative of similar results in human leukemias and solid tumors.
The animals used were BDFl mice, all of one sex, weighing a minimum of 17 g and all within a 3 g weight range. There were 5 or 6 mice per test group. The tumor transplant was by intraperitoneal injection of 0.5 ml of dilute ascitic fluid containing 10⁶ cells of lymphocytic leukemia P388. The test compounds were administered intraperitoneally at a volume of 0.5 ml in 0.2% Klucel in normal saline on days 1, 5 and 9 (relative to tumor inoculation) at the indicated doses. The mice were weighed and survivors recorded on a regular basis for 30 days. The median survival time and the ratio of survival time for treated(T)/control(C) animals were calculated. The positive control compound for LL-E33288ε-I was 1,4-dihydroxy-5,8-bis[[2-(2-hydroxyethylamino)ethyl]amino]anthraquinone, dihydrochloride (U. S. Patent 4,197,249). The positive control compound for dethiomethylγ₁-I was 1,4-bis[2-(2-hydroxyethylamino)ethylamino]-5,8-dihydroxyanthroquinone dihydrochloride, Lederle Laboratories, Pearl River, New York ("Novantrone"). The controls were given as an intraperitoneal injections in 0.5 ml of 0.2% Klucel on days 1, 5 and 9 at the indicated doses.
If T/C X 100 (%) is 125 or over, the tested compound is considered to have significant anti-tumor activity.

[1] = Dose 0.4 mg/kg intraperitoneally on days 1, 5 and 9
[2] = Dose 0.8 mg/kg intraperitoneally on days 1, 5 and 9
[3] = Dose 1.6 mg/kg intraperitoneally on days 1, 5 and 9

## Cl.Cl.O=C1c2c(O)ccc(O)c2C(=O)c2c(NCCNCCO)ccc(NCCNCCO)c21 [Positive Control, 1,4-dihydroxy-5,8-bis[[2-(2-hydroxyethylamino)ethyl]amino]anthraquinone, dihydrochloride]
[1]
  Median Survival: 21.5 days
  T/C x 100: 215%
[2]
  Median Survival: >30 days
  T/C x 100: >300%
[3]
  Median Survival: 27 days
  T/C x 100: 270%
